Experimental data taken from US20240366598A1, “GLUCOSE-DEPENDENT INSULINOTROPIC POLYPEPTIDE RECEPTOR ANTAGONISTS AND USES THEREOF” (Pfizer Inc., priority 2023, published 2024).

Biological target: T1, human Glucose-dependent Insulinotropic Polypeptide Receptor (hGIPR) (Homo sapiens, UniProt P48546)
T1 sequence (P48546 22-466): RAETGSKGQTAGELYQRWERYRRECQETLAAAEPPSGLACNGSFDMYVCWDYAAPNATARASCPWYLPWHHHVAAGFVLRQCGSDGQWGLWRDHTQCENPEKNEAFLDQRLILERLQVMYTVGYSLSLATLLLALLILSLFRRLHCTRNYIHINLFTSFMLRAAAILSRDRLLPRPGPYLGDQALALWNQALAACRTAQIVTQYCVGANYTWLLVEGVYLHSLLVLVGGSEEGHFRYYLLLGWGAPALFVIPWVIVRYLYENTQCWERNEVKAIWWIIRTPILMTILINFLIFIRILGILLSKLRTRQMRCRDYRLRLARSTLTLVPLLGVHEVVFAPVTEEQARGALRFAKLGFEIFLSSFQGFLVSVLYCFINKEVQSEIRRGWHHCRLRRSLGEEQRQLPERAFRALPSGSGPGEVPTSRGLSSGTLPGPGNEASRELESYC
Experiment: Functional in vitro GIPR antagonist potency assay (cAMP HTRF, CHO-K1 cells stably expressing hGIPR, hGIP stimulation at about EC80)
Type: cell-based
Settings: geometric mean, hGIP at estimated EC80, examples marked ^2: overall geometric mean of multiple forms (including salts) tested
Procedure, shortened: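 HTRF quantification of cAMP after stimulation with hGIP at an estimated EC80 for 30 min at 37 °C. Before stimulation, hGIPR-expressing CHO-K1 cells were exposed 2 h to test compound in IBMX-containing buffer, with 0.5% DMSO final. Percent effect is referenced to agonist alone (0%) and to 80 μM of a reference antagonist (100%), and runs required the agonist concentration to fall within the on-the-day EC50–EC90.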

Row | Structure (SMILES) | IC50
1 | O=C(O)c1ccc(-c2ccc(NC(=O)[C@H]3CCCN3C(=O)Nc3ccc(C4CC4)cc3)cc2)cn1 [Example 122, 5-[4-({1-[(4-cyclopropylphenyl)carbamoyl]-D-prolyl}amino)phenyl]pyridine-2-carboxylic acid] | 99 nM
2 | CC(C)c1ccc(NC(=O)N2C[C@H]3C[C@H]3[C@@H]2C(=O)Nc2ccc(-c3ccc(C(=O)O)cc3)cn2)cc1 [Example 123, 4-(6-{[(1R,2R,5S)-3-{[4-(propan-2-yl)phenyl]carbamoyl}-3-azabicyclo[3.1.0]hexane-2-carbonyl]amino}pyridin-3-yl)benzoic acid] | 11 nM
3 | O=C(O)c1ccc(-c2ccc(NC(=O)[C@H]3CCCN3C(=O)NCc3ccc(F)c(Cl)c3)cc2)cc1 [Example 124, 4′-[(1-{[(3-chloro-4-fluorophenyl)methyl]carbamoyl}-D-prolyl)amino][1,1′-biphenyl]-4-carboxylic acid] | 74 nM
4 | CC(C)(C)c1ccc(CNC(=O)N2CCC[C@@H]2C(=O)Nc2ccc(-c3ccc(C(=O)O)cc3)cc2)cc1 [Example 125, 4′-[(1-{[(4-tert-butylphenyl)methyl]carbamoyl}-D-prolyl)amino][1,1′-biphenyl]-4-carboxylic acid] | 19 nM
5 | O=C(O)c1ccc(-c2ccc(NC(=O)[C@H]3CCCN3C(=O)NCc3ccc(C(F)(F)F)c(F)c3)cc2)cc1 [Example 126, 4′-{[1-({[3-fluoro-4-(trifluoromethyl)phenyl]methyl}carbamoyl)-D-prolyl]amino}[1,1′-biphenyl]-4-carboxylic acid] | 6.6 nM
6 | CC(C)c1ccc(CNC(=O)N2CCC[C@@H]2C(=O)Nc2ccc(-c3ccc(C(=O)O)cc3)cc2)c(F)c1 [Example 127, 4′-{[1-({[2-fluoro-4-(propan-2-yl)phenyl]methyl}carbamoyl)-D-prolyl]amino}[1,1′-biphenyl]-4-carboxylic acid] | 69 nM
7 | O=C(O)c1ccc(-c2ccc(NC(=O)[C@H]3CCCN3C(=O)Nc3cc(F)c(C(F)(F)F)c(F)c3)cc2)cc1 [Example 128, 4′-[(1-{[3,5-difluoro-4-(trifluoromethyl)phenyl]carbamoyl}-D-prolyl)amino][1,1′-biphenyl]-4-carboxylic acid] | 9.3 nM
8 | Cc1ccc(CNC(=O)N2CCC[C@@H]2C(=O)Nc2ccc(-c3ccc(C(=O)O)cc3)cc2)cc1F [Example 129, 4′-[(1-{[(3-fluoro-4-methylphenyl)methyl]carbamoyl}-D-prolyl)amino][1,1′-biphenyl]-4-carboxylic acid] | 14 nM
9 | O=C(O)c1ccc(-c2ccc(NC(=O)[C@H]3CCCN3C(=O)NCc3ccc(C(F)(F)F)c(Cl)c3)cc2)cc1 [Example 130, 4′-{[1-({[3-chloro-4-(trifluoromethyl)phenyl]methyl}carbamoyl)-D-prolyl]amino}[1,1′-biphenyl]-4-carboxylic acid] | 11 nM
10 | O=C(O)c1ccc(-c2ccc(NC(=O)[C@H]3CCCN3C(=O)NCc3ccc(C(F)(F)F)cc3F)cc2)cc1 [Example 131, 4′-{[1-({[2-fluoro-4-(trifluoromethyl)phenyl]methyl}carbamoyl)-D-prolyl]amino}[1,1′-biphenyl]-4-carboxylic acid] | 140 nM
11 | O=C(O)c1ccc(-c2ccc(NC(=O)[C@H]3CCCN3C(=O)NCc3ccc(Cl)cc3F)cc2)cc1 [Example 132, 4′-[(1-{[(4-chloro-2-fluorophenyl)methyl]carbamoyl}-D-prolyl)amino][1,1′-biphenyl]-4-carboxylic acid] | 77 nM
12 | O=C(O)c1ccc(-c2ccc(NC(=O)[C@H]3CCCN3C(=O)NCc3c(F)cc(Cl)cc3F)cc2)cc1 [Example 133, 4′-[(1-{[(4-chloro-2,6-difluorophenyl)methyl]carbamoyl}-D-prolyl)amino][1,1′-biphenyl]-4-carboxylic acid] | 180 nM
13 | COc1cc(C(F)(F)F)ccc1NC(=O)N1CCC[C@@H]1C(=O)Nc1ccc(-c2ccc(C(=O)O)cc2)cc1 [Example 134, 4′-[(1-{[2-methoxy-4-(trifluoromethyl)phenyl]carbamoyl}-D-prolyl)amino][1,1′-biphenyl]-4-carboxylic acid] | 140 nM
